In patent publication US20140073639A1 (priority 2012, published 2014):
“And” between values parts separate entries of the source, which are not always exact repeats. Identical values can stand only once. Like-named read-outs stand apart in the source and are kept apart here.

Assays:
S. aureus RN4220 [1] = experiment: microbe, parasite or virus in culture; type: cell-based; conditions: Staphylococcus aureus, 37° C., 24 hours
B. anthracis ΔSterne = type: cell-based
S. aureus strain RN4220 = type: cell-based, Staphylococcus aureus
[2] = test system: Gram-positive organisms that also encode 2-epimerases; type: cell-based
B. anthracis Sterne = type: in vivo, C57BL/6 mice
S. aureus RN4220 [3] = type: cell-based

## O=C(O)C(Cc1ccccc1)N1C(=O)/C(=C\c2ccc(-c3ccc(Br)cc3)s2)NC1=S (stereo not shown) [Epimerox, 2-{4-[5-(4-bromophenyl)-thiophen-2-ylmethylene]-5-oxo-2-thioxo-imidazolidin-1-yl}-3-phenyl-propionic acid]
S. aureus RN4220 [1]
  MIC: 8 µg/mL and 16 µM
B. anthracis ΔSterne
  concentrations that effectively blocked growth: above 3 μM
S. aureus strain RN4220
  Epimerox concentrations at which strain did not grow: above 7.5 μm1^−1
  growth of S. aureus: grew very poorly
[2]
  growth of many other Gram-positive organisms: inhibited the growth
B. anthracis Sterne; after 2 days
  B. anthracis in the major organs: not observed
B. anthracis Sterne; at 20 hours
  B. anthracis in the major organs: detected
B. anthracis Sterne; mouse, in vivo
  animals survived 14 days: 100% and 66%
S. aureus RN4220 [3]
  MIC plateau, serial passage: 12 μg m1^−1
  starting MIC, serial passage: 5.0 μg m1^−1
